Patent US6352709B1, “Localized use of nitric oxide-adducts to prevent internal tissue damage” (NitroMed, Inc., priority 1993, dated 2002)

Key:
[1] = test system: proliferating cell nuclear antigen; experiment: PCNA staining of proliferating cells 7 days after balloon injury; type: in vivo, rabbit; conditions: 7 days after injury
Description: In a separate set of animals, vessels were perfusion-fixed with 10% buffered formalin seven days after injury and processed for analysis of proliferating cells within 12 hours as described above. Sections were stained for proliferating cell nuclear antigen and adjacent sections were stained with hematoxylin and eosin. Five representative sections from each segment were examined. Total nuclei were counted from the hematoxylin and eosin slides and percent PCNA positive cells were defined as the number of PCNA-positive nuclei divided by the total number of nuclei multiplied by 100.

[2] = test system: platelet cGMP; experiment: Platelet cGMP in platelet-rich plasma exposed ex vivo to treated vessel rings; type: cell-based, human; conditions: one-minute exposure of PRP to treated vessel rings, 10 μM isobutylmethylxanthine, n=14
Description: Rabbit femoral arteries were isolated and balloon-injured as described with reference to FIG. 4. After paired local administration of polythiolated S-nitroso-albumin and polythiolated albumin for 15 minutes, the vessels were harvested and divided into 2 mm rings. The rings were then immersed in 100 μl of platelet-rich plasma containing 10 μM 3-isobutyl-1-methylxanthine and were incubated for 1 minute ex-vivo. An equal volume of ice-cold 10% trichloroacetic acid was added to each aliquot and the sample vortexed. Platelet cGMP assay was then performed as described in “Methods.” Data are expressed as mean +/− SEM. *P<0.05.
cGMP analysis: Whole blood was obtained from fasting human volunteers and platelet-rich plasma (PRP) was prepared by centrifugation. Platelet counts were determined using a Coulter counter model ZM (Coulter Diagnostics, Hileah, Fla.). After balloon injury and treatment with pS-NO-BSA or PS-BSA, arterial segments were harvested and 2-mm segments were incubated with 100 μl of PRP containing 10 μM isobutylmethylxanthine. After 1 minute, an equal volume of ice-cold 10% trichloroacetic acid was added to each aliquot and the sample vortexed. Enzyme-linked immunoassay of cGMP was then performed (Cayman Chemical Company, Ann Arbor, Mich.). […]

[3] = test system: balloon-injured rabbit femoral artery; experiment: Neointimal proliferation after balloon injury of femoral artery (morphometry); type: in vivo
Description: Femoral arteries were isolated and balloon injured as described below. pS-BSA or pS-NO-BSA were applied in a paired fashion directly into the arterial lumen for 15 minutes and then blood flow was re-established. […] Neointimal proliferation is reported as the absolute neointimal area in FIG. 5A and as a ratio of neointima/media in FIG. 5B in 4-6 segments from each artery. Data are expressed as mean +/− SEM and are derived from 15 vessels in the BSA and S-NO-BSA groups, 11 vessels in the PS-BSA group, 7 vessels in the PS-NO-BSA and SHAM groups, and 5 in the SNP group. *P<0.05, pS-NO-BSA vs. PS-BSA. +/+P<0.05 Sodium nitroprusside vs. pS-BSA for both FIGS. 5A and 5B.
Animal Preparation: All animal preparations were performed within the institutional guidelines of the Brockton/West Roxbury Department of Veteran Affairs Medical Center and Boston University Medical Center, and in accordance with the guiding principles of the American Physiological Society. New Zealand white rabbits (3.5-4.2 kg) of either sex were premedicated with 5 mg/kg intramuscular (IM) xylazine hydrochlolide (Miles Pharmaceuticals, Shawnee Mission, Kans.), and 0.1 mg/kg subcutaneous (SC) atropine sulfate (Lyphomed, Deerfield, Ill.) fifteen minutes prior to the induction of anesthesia. Anesthesia was induced with 40 mg/kg IM ketamine hydrochloride (Fort Dodge Laboratories, Fort Dodge, Ind.) and 5 mg/kg IM acepromazine maleate (Aveco Company, Inc., Fort Dodge, Ind.). Additional doses of ketamine hydrochloride were administered as necessary to maintain anesthesia. For survival studies, 100,000 U penicillin G (Apothecon of Bristol-Myers Squibb, Princeton, N.J.), was administered IM perioperatively. The skin over the femoral arteries was next infiltrated with 1% lidocaine (Astra Pharmaceuticals, Inc., Westborough, Mass.) and the common femoral arteries were exposed from the inguinal ligament to the superficial femoral artery. Arteries were cleared of connective tissue, side branches were ligated, and the superficial femoral artery was suspended with silk ties. A 1.5-to-2.0 cm length of femoral artery was isolated from the circulation proximally and distally with neurosurgical microaneurysm clips. The superficial femoral-artery was cannulated with a 2F Fogarty balloon catheter (American Edwards Laboratories, Santa Ana, Calif.) that was passed into the isolated segment of femoral artery. The balloon was inflated with sufficient air to generate slight resistance and withdrawn three times. A 20 g angiocath was then inserted in the arteriotomy and 1 ml of 25.8 mg/ml PS-NO-BSA or 49.2 mg/ml S-NO-BSA was administered over 15 minutes. The contralateral femoral artery was prepared identically and an appropriate control (25.8 mglml pS-BSA, 49.2 mg/ml BSA or 0.66 mg/ml sodium nitroprusside) was administered. For binding studies, 0.5 ml of [^125I]-labeled nitrosylated albumin or control was administered. Following administration of the agent, the superficial femoral artery was ligated and flow reestablished. Sham-operated animals underwent surgical exposure and sidebranch ligation, but no balloon injury was performed or local delivery administered. The area of balloon injury was marked by surgical staples in the adjacent muscle fascia. For chronic studies, the incision was closed with subcuticular absorbable suture and the animals allowed to recover. For acute studies, blood was allowed to circulate through the treated areas for 15 minutes prior to vessel harvest. In some experiments, a distant control vessel, the right carotid artery, was isolated and harvested without any other manipulation.
A 7F plastic cannula was inserted into the abdominal aorta and the vessels perfused clear with saline followed by fixation at 100 mm Hg pressure with 10% buffered formalin. The vessels were stored in 10% buffered formalin and the samples paraffin-embedded and microtome-sectioned. […]

[4] = test system: [^111In]-labeled platelets; experiment: [111In]-labeled platelet binding to balloon-injured femoral arteries; type: in vivo, rabbit; conditions: for adhesion of [^111In]-labelled platelets to injured vessels: local administration 15 minutes, 15 minutes recirculation, n=6
Description: Femoral arteries were isolated and balloon injured as described in Example 1. During paired local administration of polythiolated S-nitroso-albumin and polythiolated albumin, [^111In]-labeled platelets were administered intravenously and allowed to circulate after flow was reestablished in the treated arteries. [^111In]-labeled platelet binding was determined by quantification of radioactivity after flow was re-established for a period of 15 minutes. Non-specific [^111In]-labeled platelet binding (Uninjured Carotid Artery) was determined from uninjured carotid artery harvested with femoral arteries. Data are presented as mean +/− SEM per gram of wet tissue weight and are derived from six animals. *P<0.05, PS-BSA vs. pS-NO-BSA.
(§1) Animal Preparation: All animal preparations were performed within the institutional guidelines of the Brockton/West Roxbury Department of Veteran Affairs Medical Center and Boston University Medical Center, and in accordance with the guiding principles of the American Physiological Society. New Zealand white rabbits (3.5-4.2 kg) of either sex were premedicated with 5 mg/kg intramuscular (IM) xylazine hydrochlolide (Miles Pharmaceuticals, Shawnee Mission, Kans.), and 0.1 mg/kg subcutaneous (SC) atropine sulfate (Lyphomed, Deerfield, Ill.) fifteen minutes prior to the induction of anesthesia. Anesthesia was induced with 40 mg/kg IM ketamine hydrochloride (Fort Dodge Laboratories, Fort Dodge, Ind.) and 5 mg/kg IM acepromazine maleate (Aveco Company, Inc., Fort Dodge, Ind.). Additional doses of ketamine hydrochloride were administered as necessary to maintain anesthesia. For survival studies, 100,000 U penicillin G (Apothecon of Bristol-Myers Squibb, Princeton, N.J.), was administered IM perioperatively. The skin over the femoral arteries was next infiltrated with 1% lidocaine (Astra Pharmaceuticals, Inc., Westborough, Mass.) and the common femoral arteries were exposed from the inguinal ligament to the superficial femoral artery. […]

[5] = test system: vessel cGMP; experiment: Vessel tissue cGMP after local treatment of balloon-injured artery; type: in vivo, rabbit; conditions: treated balloon-injured vessel segments, n=3
Description: cGMP analysis: Whole blood was obtained from fasting human volunteers and platelet-rich plasma (PRP) was prepared by centrifugation. Platelet counts were determined using a Coulter counter model ZM (Coulter Diagnostics, Hileah, Fla.). After balloon injury and treatment with pS-NO-BSA or PS-BSA, arterial segments were harvested and 2-mm segments were incubated with 100 μl of PRP containing 10 μM isobutylmethylxanthine. After 1 minute, an equal volume of ice-cold 10% trichloroacetic acid was added to each aliquot and the sample vortexed. Enzyme-linked immunoassay of cGMP was then performed (Cayman Chemical Company, Ann Arbor, Mich.). Separate 2 mm vessel segments were also assayed for tissue CGMP after treatment with ice-cold 10% trichloroacetic acid and sonication (Heat Systems-Utrasonics, Inc., Plainview, N.Y.).

[6] = test system: balloon-injured rabbit femoral artery; experiment: [125I]-S-NO-BSA binding to balloon-injured femoral artery; type: in vivo
Description: Rabbit femoral arteries were isolated and balloon-injured as described in Example 1 and [^125I]-S-NO-BSA applied either directly into the injured artery (local) or injected intraarterially via the opposite femoral artery (systemic). [^125I]-S-NO-BSA binding was determined by quantification of radioactivity after flow was reestablished for a period of 15 minutes. Non-specific [^125I]-S-NO-BSA binding (sham) was determined from uninjured carotid artery harvested simultaneously with femoral arteries. Data are presented as mean +/− SEM per gram of wet tissue weight, and are derived from four animals. *P<0.0.029, local vs. systemic delivery and +/+P<0.05, systemic injured vs. sham.
Preparation of [^125I]-labeled S-NO-BSA and [^111In] labeled platelets: BSA (0.1 mg/ml) was combined with two IODO-BEADS and 0.1 mCi of Na[^125I]. The solution was incubated for 45 minutes and unincorporated Na[^125I] was removed by gel filtration with Sephadex G25 equilibrated with TBS containing 0.1 mg/ml BSA. […] [^111In]-labeling of platelets was performed after the method of Wistow and colleagues.^(17)
as §1, with “perioperatively.” for “perioperatively. The skin over the femoral arteries was next infiltrated with 1% lidocaine (Astra Pharmaceuticals, Inc., Westborough, Mass.) and the common femoral arteries were exposed from the inguinal ligament to the superficial femoral artery.”

[7] = 14 days after balloon injury, local delivery 15 minutes
[8] = 14 days after balloon injury, n=7

pS-BSA: thiolated bovine serum albumin, non-nitrosylated control for pS-NO-BSA [reference compound]
percent of proliferating (PCNA positive) cells [1]: 30.1% +/−5.9
platelet cGMP [2]: 4.11+/−0.9 pmol 10^8 platelets
neointima/media ratio ([3]; 7 days after injury, n=5): 0.068±0.027
neointimal area ([3]; 7 days after injury, n=5): 0.258+/−0.19 ×10^5 μm^2
neointima/media ratio [3, 7]: 0.85+/−0.122
neointimal area [3, 7]: 2.24+/−0.328 ×10^5 μm^2
adhesion of [^111In]-labelled platelets to injured vessels [4]: 71.3+/−40.4 ×10^3 cpm/gm
vessel cGMP levels [5]: 0.283+/−0.23 pmol/mg protein

pS-NO-BSA: polythiolated S-nitroso-albumin; thiolated BSA nitrosylated with NaNO2 in HCl
percent of proliferating (PCNA positive) cells [1]: 37.8% +/−5.9
platelet cGMP [2]: 19.9+/−3.3 pmol 10^8 platelets
neointima/media ratio ([3]; 7 days after injury, n=5): 0.032±0.005
neointimal area ([3]; 7 days after injury, n=5): 0.124±0.06 ×10^5 μm^2
neointima/media ratio [3, 7]: 0.196 +/−0.66
neointimal area [3, 7]: 0.41+/−0.11 ×10^5 μm^2
reduction of neointima/media ratio vs control [3, 8]: 77%
reduction of neointimal area vs control [3, 8]: 81%
adhesion of [^111In]-labelled platelets to injured vessels [4]: 16.3+/−6.2 ×10^3 cpm/gm
reduction of platelet adhesion compared to control ([4]; local administration, injured femoral artery): over four-fold
vessel cGMP levels [5]: 0.48+/−0.46 pmol/mg protein

[^125I]-S-NO-BSA: [125I]-labeled S-nitroso-albumin used for binding studies
binding to injured femoral artery, local delivery ([6]; applied directly into injured artery, 15 minutes flow, n=4): 140.4+/−3.9 ×10^3 cpm/gm
binding to injured femoral artery, systemic delivery ([6]; injected intraarterially via opposite femoral artery, 15 minutes flow, n=4): 5.4+/−0.9 ×10^3 cpm/gm
increase in binding, local vs systemic delivery ([6]; injured femoral artery): 26 fold
